MIC data for six compounds are collected here from ChEMBL document CHEMBL3763039, “Development and Characterization of Potent Cyclic Acyldepsipeptide Analogues with Increased Antimicrobial Activity” (2016).

Type in all cases: functional
Assay [1] concerns Escherichia coli. The assay is described as follows: Antibacterial activity against Escherichia coli MC4100 incubated for 16 to 18 hrs by broth microdilution method. (In broth dilution the organism is exposed to a series of concentrations in liquid medium.)
For assay [2], the system named is Staphylococcus aureus. Briefly: Antibacterial activity against Staphylococcus aureus subsp. aureus Newman clinical isolate incubated for 16 to 18 hrs by broth microdilution method.
The next assay deals with Neisseria gonorrhoeae. The assay is described as follows: Antibacterial activity against chloramphenicol-resistant Neisseria gonorrhoeae N.279 incubated for 16 to 18 hrs by broth microdilution method.
Another assay deals with Pseudomonas aeruginosa. The assay is described as follows: Antibacterial activity against Pseudomonas aeruginosa PAO1 incubated for 16 to 18 hrs by broth microdilution method.
The subject of assay [3] is Staphylococcus aureus. Briefly: Antibacterial activity against methicillin-resistant Staphylococcus aureus 1784A incubated for 16 to 18 hrs by broth microdilution method.
For a further assay, the system named is Streptococcus pneumoniae. The assay is described as follows: Antibacterial activity against Streptococcus pneumoniae D39 incubated for 16 to 18 hrs by broth microdilution method.
The subject of assay [4] is Neisseria meningitidis. Briefly: Antibacterial activity against Neisseria meningitidis H44/76 incubated for 16 to 18 hrs by broth microdilution method.
Assay [5] concerns Neisseria meningitidis. The assay is described as follows: Antibacterial activity against clpP deficient Neisseria meningitidis H44/76 incubated for 16 to 18 hrs by broth microdilution method.
The test system of assay [6] is Escherichia coli. Briefly: Antibacterial activity against Escherichia coli MC4100 expressing lptD-4213 incubated for 16 to 18 hrs by broth microdilution method.
Another assay has as its system Bacillus subtilis. Briefly: Antibacterial activity against Bacillus subtilis PY79 incubated for 16 to 18 hrs by broth microdilution method.
Assay [7] deals with Staphylococcus aureus. The assay is described as follows: Antibacterial activity against Staphylococcus aureus ATCC 29213 incubated for 16 to 18 hrs by broth microdilution method.
Another assay concerns Enterococcus faecalis. The assay is described as follows: Antibacterial activity against vancomycin-resistant Enterococcus faecalis V583 incubated for 16 to 18 hrs by broth microdilution method.
For a further assay, the system named is Listeria innocua. Briefly: Antibacterial activity against Listeria innocua incubated for 16 to 18 hrs by broth microdilution method.

Converted amounts (≈) assume the structure as drawn. Where a SMILES comes first, the peptide text is derived from it. Bridges are numbered along the chain shown (N, C = ends). [ ]: non-standard residue; d: D form. The star is where a group is joined. Phe(3,5-F2) = N[C@@H](Cc1cc(F)cc(F)c1)C(=O)O; Pro(4R-Me) = C[C@H]1CN[C@H](C(=O)O)C1; aThr = C[C@H](O)[C@H](N)C(=O)O; Pip = O=C(O)[C@@H]1CCCCN1; NMeA = CN[C@@H](C)C(=O)O; X1 = CCC/C=C/C=C/C(=O)* Bounds are passed on as bounds.

The term MIC denotes the smallest concentration in the dilution series that meets the test's criterion for growth inhibition. The low end stands for a more susceptible organism, the high end for a less susceptible organism. `CCC/C=C/C=C/C(=O)N[C@@H](Cc1cc(F)cc(F)c1)C(=O)N[C@@H]1C(=O)N2CCC[C@H]2C(=O)N2CCCC[C@H]2C(=O)N[C@@H](C)C(=O)N2C[C@H](C)C[C@H]2C(=O)O[C@H]1C` (X1-[Phe(3,5-F2)][aThr]P[Pip]A[Pro(4R-Me)]; ester 2-C): the MIC was greater than 128 µg/mL with Escherichia coli [1]; 0.0625 µg/mL (≈ 0.0784 µM) against Staphylococcus aureus [2]; 0.0078 µg/mL (≈ 0.00979 µM) with Neisseria gonorrhoeae; greater than 128 µg/mL with Pseudomonas aeruginosa; 0.125 µg/mL (≈ 0.157 µM) with Staphylococcus aureus [3]; no more than 0.0625 µg/mL against Streptococcus pneumoniae. In addition, the MIC was 0.0313 µg/mL (≈ 0.0393 µM) against Neisseria meningitidis [4]; greater than 128 µg/mL against Neisseria meningitidis [5]; 4 µg/mL (≈ 5.02 µM) in the assay with Escherichia coli [6]; no more than 0.0625 µg/mL against Bacillus subtilis; 0.0019 µg/mL (≈ 0.00238 µM) in the assay with Staphylococcus aureus [7]; 0.0039 µg/mL (≈ 0.00489 µM) in the assay on Enterococcus faecalis. Also, the minimum inhibitory concentration (MIC) against Listeria innocua was no more than 0.0625 µg/mL.
Regarding `CCC/C=C/C=C/C(=O)N[C@@H](Cc1ccccc1)C(=O)N[C@H]1COC(=O)[C@@H]2C[C@@H](C)CN2C(=O)[C@H](C)NC(=O)[C@H](C)N(C)C(=O)[C@@H]2CCCN2C1=O` (X1-FSP[NMeA]A[Pro(4R-Me)]; ester 2-C), the MIC against Escherichia coli [1] was greater than 128 µg/mL; in the assay on Staphylococcus aureus [2], 0.25 µg/mL (≈ 0.347 µM); against Neisseria gonorrhoeae, 0.0156 µg/mL (≈ 0.0216 µM); in the assay with Pseudomonas aeruginosa, greater than 128 µg/mL; with Staphylococcus aureus [3] it was 0.5 µg/mL (≈ 0.694 µM); in the assay on Streptococcus pneumoniae, no more than 0.0625 µg/mL. Moreover, the MIC with Neisseria meningitidis [4] is 0.0313 µg/mL (≈ 0.0434 µM); in the assay on Neisseria meningitidis [5], greater than 128 µg/mL; against Escherichia coli [6], greater than 128 µg/mL; in the assay with Bacillus subtilis, 0.125 µg/mL (≈ 0.173 µM); against Staphylococcus aureus [7], 0.5 µg/mL (≈ 0.694 µM); against Enterococcus faecalis it was 0.125 µg/mL (≈ 0.173 µM). Further, the MIC in the assay with Listeria innocua was no more than 0.0625 µg/mL.
`O=C(N[C@H](CO)[C@H](O)c1ccc([N+](=O)[O-])cc1)C(Cl)Cl` [CHLORAMPHENICOL]: the minimum inhibitory concentration (MIC) against Escherichia coli [1] was 3.1 µg/mL (≈ 9.59 µM); against Neisseria gonorrhoeae it was 64 µg/mL (≈ 198 µM); against Pseudomonas aeruginosa, 8 µg/mL (≈ 24.8 µM); against Neisseria meningitidis [4], 0.5 µg/mL (≈ 1.55 µM); against Neisseria meningitidis [5], 1 µg/mL (≈ 3.09 µM); in the assay with Escherichia coli [6], 2 µg/mL (≈ 6.19 µM).
Turning to `C[C@@H]1C[C@H]2C(=O)O[C@@H](C)[C@H](NC(=O)[C@H](Cc3cc(F)cc(F)c3)NC(=O)/C=C/CC3CCCCC3)C(=O)N3CCC[C@H]3C(=O)N3CCCC[C@H]3C(=O)N[C@@H](C)C(=O)N2C1`, the minimal inhibitory concentration (MIC) was greater than 128 µg/mL against Escherichia coli [1]; 0.0625 µg/mL (≈ 0.0758 µM) against Staphylococcus aureus [2]; 0.125 µg/mL (≈ 0.152 µM) against Neisseria gonorrhoeae; greater than 128 µg/mL against Pseudomonas aeruginosa; 0.125 µg/mL (≈ 0.152 µM) against Staphylococcus aureus [3]; 0.0625 µg/mL (≈ 0.0758 µM) in the assay on Streptococcus pneumoniae. Also, the minimum inhibitory concentration (MIC) is 0.0625 µg/mL (≈ 0.0758 µM) against Neisseria meningitidis [4]; greater than 128 µg/mL against Neisseria meningitidis [5]; greater than 128 µg/mL against Escherichia coli [6]; no more than 0.0625 µg/mL against Bacillus subtilis; 0.0078 µg/mL (≈ 0.00945 µM) against Staphylococcus aureus [7]; 0.0078 µg/mL (≈ 0.00945 µM) with Enterococcus faecalis. This compound also gave an MIC in the assay on Listeria innocua of no more than 0.0625 µg/mL.
As to `CCCC/C=C/C(=O)N[C@@H](Cc1cc(F)cc(F)c1)C(=O)N[C@@H]1C(=O)N2CCC[C@H]2C(=O)N2CC[C@H](C)C[C@H]2C(=O)N[C@@H](C)C(=O)N2C[C@H](C)C[C@H]2C(=O)O[C@H]1C`, the MIC in the assay on Escherichia coli [1] is greater than 128 µg/mL; against Staphylococcus aureus [2], 0.25 µg/mL (≈ 0.313 µM); in the assay on Neisseria gonorrhoeae, 0.125 µg/mL (≈ 0.156 µM); against Pseudomonas aeruginosa, greater than 128 µg/mL; in the assay on Staphylococcus aureus [3], 8 µg/mL (≈ 10 µM); with Streptococcus pneumoniae, no more than 0.0625 µg/mL. The minimal inhibitory concentration (MIC) in the assay on Neisseria meningitidis [4] is 0.0625 µg/mL (≈ 0.0782 µM); against Neisseria meningitidis [5], greater than 128 µg/mL; in the assay with Escherichia coli [6] it was greater than 128 µg/mL; in the assay on Bacillus subtilis it was no more than 0.0625 µg/mL; in the assay on Staphylococcus aureus [7] it was 0.0078 µg/mL (≈ 0.00976 µM); in the assay on Enterococcus faecalis, 0.0156 µg/mL (≈ 0.0195 µM). The compound also came in with a minimal inhibitory concentration (MIC) in the assay with Listeria innocua of no more than 0.0625 µg/mL.
As to `CCCC/C=C/C(=O)N[C@@H](Cc1cc(F)cc(F)c1)C(=O)N[C@@H]1C(=O)N2CCC[C@H]2C(=O)N2CCCC[C@H]2C(=O)N[C@@H](C)C(=O)N2C[C@H](C)C[C@H]2C(=O)O[C@H]1C`, the minimum inhibitory concentration (MIC) against Escherichia coli [1] was greater than 128 µg/mL; in the assay on Staphylococcus aureus [2], 0.0625 µg/mL (≈ 0.0796 µM); against Neisseria gonorrhoeae, 0.0625 µg/mL (≈ 0.0796 µM); with Pseudomonas aeruginosa, greater than 128 µg/mL; against Staphylococcus aureus [3] it was 0.125 µg/mL (≈ 0.159 µM); against Streptococcus pneumoniae it was no more than 0.0625 µg/mL. The MIC in the assay with Neisseria meningitidis [4] was 0.0625 µg/mL (≈ 0.0796 µM); in the assay on Neisseria meningitidis [5], greater than 128 µg/mL; with Escherichia coli [6], greater than 128 µg/mL; against Bacillus subtilis, no more than 0.0625 µg/mL; in the assay with Staphylococcus aureus [7], 0.0039 µg/mL (≈ 0.00497 µM); against Enterococcus faecalis it was 0.0078 µg/mL (≈ 0.00994 µM). The minimal inhibitory concentration (MIC) against Listeria innocua is no more than 0.0625 µg/mL.
